Measurements: US10273222B2 (CELGENE QUANTICEL RESEARCH, INC., priority 2013, dated 2019)

Columns and labels:
Type in all cases: biochemical
FBXL10 = FBXL10 (Homo sapiens (Human), UniProt Q8NHM5); test: FBXL10 in vitro enzyme inhibition assay (AlphaScreen)
Method: Reaction product was determined quantitatively by AlphaScreen detection after the addition of detection reagents anti-H3K36me1 antibody, AlphaScreen® Streptavidin-coated Donor beads, and AlphaScreen® Protein A Acceptor beads in 50 mM HEPES, pH7.3, 10 mM NaCl, 0.005% Brij35, 5 mM EDTA, 2 mg/ml BSA to final 10 μg/ml beads.
Plates were incubated at room temperature for 40 minutes, followed by addition of 3 μl of 50 μg/ml AlphaScreen® Streptavidin-coated Donor beads and AlphaScreen® Protein A Acceptor beads in 50 mM HEPES, pH7.3, 10 mM NaCl, 0.005% Brij35, 5 mM EDTA, 2 mg/ml BSA. Plates were read by EnVisionMultilabel Reader in AlphaScreen mode after a minimum of 2 hour or up to overnight incubation at room temperature. The AlphaScreen signal for each well was used to determine inhibition constant (IC50).

Jarid1A = Jarid1A (Homo sapiens (Human), UniProt P29375); test: Jarid1A in vitro enzyme inhibition assay (TR-FRET)
Excerpt: The enzymatic assay of Jarid1A activity is based upon Time Resolved-Fluorescence Resonance Energy Transfer (TR-FRET) detection.

Jarid1B = Jarid1B (Homo sapiens (Human), UniProt Q9UGL1); test: Jarid1B in vitro enzyme inhibition assay (TR-FRET)
Method: This assay determines the ability of a test compound to inhibit Jarid1A, Jarid1B, JMJD2C, and JMJD2A demethylase activity.
The ability of test compounds to inhibit the activity of Jarid1B was determined in 384-well plate format under the following reaction conditions: 0.8 nM Jarid1B, 300 nM H3K4me3-biotin labeled peptide (Anaspec cat #64357), 2 μM alpha-ketoglutaric acid in assay buffer of 50 mM HEPES, pH7.3, 0.005% Brij35, 0.5 mM TCEP, 0.2 mg/ml BSA, 50 μM sodium L-ascorbate, and 2 μM ammonium iron(II) sulfate. Reaction product was determined quantitatively by TR-FRET after the addition of detection reagent Phycolink Streptavidin-allophycocyanin (Prozyme) and Europium-anti-mono- or di-methylated histone H3 lysine 4 (H3K4me1-2) antibody (PerkinElmer) in the presence of 5 mM EDTA in LANCE detection buffer (PerkinElmer) at a final concentration of 25 nM and 1 nM, respectively.
The assay reaction was initiated by the following: 2 μl of the mixture of 900 nM H3K4me3-biotin labeled peptide and 6 μM alpha-ketoglutaric acid with 2 μl of 11-point serial diluted inhibitor in 3% DMSO was added to each well of the plate, followed by the addition of 2 μl of 2.4 nM Jarid1B to initiate the reaction. The reaction mixture was incubated at room temperature for 30 minutes, and terminated by the addition of 6 μl of 5 mM EDTA in LANCE detection buffer containing 50 nM Phycolink Streptavidin-allophycocyanin and 2 nM Europium-anti-H3K4me1-2 antibody. Plates were read by EnVisionMultilabel Reader in TR-FRET mode (excitation at 320 nm, emission at 615 nm and 665 nm) after 1 hour incubation at room temperature. A ratio was calculated (665/615) for each well and fitted to determine inhibition constant (IC50).

JMJD2C = JMJD2C (Homo sapiens (Human), UniProt Q9H3R0); test: JMJD2C in vitro enzyme inhibition assay (TR-FRET)
Chain of JMJD2C (Q9H3R0 2-372): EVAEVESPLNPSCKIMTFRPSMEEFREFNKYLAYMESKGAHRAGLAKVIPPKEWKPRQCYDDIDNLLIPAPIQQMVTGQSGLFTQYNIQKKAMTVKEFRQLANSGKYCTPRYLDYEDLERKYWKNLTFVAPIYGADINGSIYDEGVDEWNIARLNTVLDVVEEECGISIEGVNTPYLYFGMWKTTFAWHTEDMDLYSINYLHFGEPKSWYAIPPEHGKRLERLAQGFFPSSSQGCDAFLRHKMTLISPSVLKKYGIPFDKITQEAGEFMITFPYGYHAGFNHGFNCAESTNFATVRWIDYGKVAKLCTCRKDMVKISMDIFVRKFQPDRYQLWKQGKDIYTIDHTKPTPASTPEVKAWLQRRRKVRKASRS
Method: This assay determines the ability of a test compound to inhibit Jarid1A, Jarid1B, JMJD2C, and JMJD2A demethylase activity. […] Baculovirus expressed JMJD2C (GenBank Accession #BC143571, AA 2-372) was purchased from BPS Bioscience (Cat#50105).
The ability of test compounds to inhibit the activity of JMJD2C was determined in 384-well plate format under the following reaction conditions: 0.3 nM JMJD2C, 300 nM H3K9me3-biotin labeled peptide (Anaspec cat #64360), 2 μM alpha-ketoglutaric acid in assay buffer of 50 mM HEPES, pH7.3, 0.005% Brij35, 0.5 mM TCEP, 0.2 mg/ml BSA, 50 μM sodium L-ascorbate, and 2 μM ammonium iron(II) sulfate. Reaction product was determined quantitatively by TR-FRET after the addition of detection reagent Phycolink Streptavidin-allophycocyanin (Prozyme) and Europium-anti-di-methylated histone H3 lysine 9 (H3K9me2) antibody (PerkinElmer) in the presence of 5 mM EDTA in LANCE detection buffer (PerkinElmer) at a final concentration of 50 nM and 1 nM, respectively.
The assay reaction was initiated by the following: 2 μl of the mixture of 900 nM H3K9me3-biotin labeled peptide and 6 μM alpha-ketoglutaric acid with 2 μl of 11-point serial diluted inhibitor in 3% DMSO were added to each well of the plate, followed by the addition of 2 μl of 0.9 nM JMJD2C to initiate the reaction. The reaction mixture was incubated at room temperature for 30 minutes, and terminated by the addition of 6 μl of 5 mM EDTA in LANCE detection buffer containing 100 nM Phycolink Streptavidin-allophycocyanin and 2 nM Europium-anti-H3K9me2 antibody. Plates were read by EnVisionMultilabel Reader in TR-FRET mode (excitation at 320 nm, emission at 615 nm and 665 nm) after 1 hour incubation at room temperature. A ratio was calculated (665/615) for each well and fitted to determine inhibition constant (IC50).

Chain of Jarid1A (P29375 1-1090): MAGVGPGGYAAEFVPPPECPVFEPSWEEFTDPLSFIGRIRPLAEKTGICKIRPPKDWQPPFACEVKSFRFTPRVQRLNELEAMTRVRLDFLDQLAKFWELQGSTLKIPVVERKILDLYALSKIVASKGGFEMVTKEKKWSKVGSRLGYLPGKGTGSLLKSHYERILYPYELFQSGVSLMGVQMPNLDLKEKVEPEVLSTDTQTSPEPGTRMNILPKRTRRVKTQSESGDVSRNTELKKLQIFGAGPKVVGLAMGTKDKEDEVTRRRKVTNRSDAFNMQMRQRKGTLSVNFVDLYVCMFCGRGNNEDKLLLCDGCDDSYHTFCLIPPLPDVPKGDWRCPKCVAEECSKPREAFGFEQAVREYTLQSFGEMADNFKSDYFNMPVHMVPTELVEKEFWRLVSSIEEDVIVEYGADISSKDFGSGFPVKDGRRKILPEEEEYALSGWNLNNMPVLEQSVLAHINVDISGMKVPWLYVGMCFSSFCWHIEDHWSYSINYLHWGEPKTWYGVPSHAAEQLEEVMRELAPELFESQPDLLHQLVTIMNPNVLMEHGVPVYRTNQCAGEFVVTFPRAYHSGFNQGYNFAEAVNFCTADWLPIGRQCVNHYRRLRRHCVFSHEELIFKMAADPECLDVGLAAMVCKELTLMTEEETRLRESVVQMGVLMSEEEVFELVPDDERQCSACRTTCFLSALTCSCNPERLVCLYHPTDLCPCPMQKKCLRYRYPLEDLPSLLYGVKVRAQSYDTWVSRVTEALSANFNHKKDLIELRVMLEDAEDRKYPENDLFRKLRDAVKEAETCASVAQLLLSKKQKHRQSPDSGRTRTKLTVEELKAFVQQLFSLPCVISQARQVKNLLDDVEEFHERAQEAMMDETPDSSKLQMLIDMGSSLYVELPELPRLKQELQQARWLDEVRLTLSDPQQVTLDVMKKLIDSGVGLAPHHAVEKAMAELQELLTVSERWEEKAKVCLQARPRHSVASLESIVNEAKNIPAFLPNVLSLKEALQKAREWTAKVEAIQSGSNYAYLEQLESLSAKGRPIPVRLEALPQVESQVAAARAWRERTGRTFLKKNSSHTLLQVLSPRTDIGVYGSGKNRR
Chain of Jarid1B (Q9UGL1 2-751): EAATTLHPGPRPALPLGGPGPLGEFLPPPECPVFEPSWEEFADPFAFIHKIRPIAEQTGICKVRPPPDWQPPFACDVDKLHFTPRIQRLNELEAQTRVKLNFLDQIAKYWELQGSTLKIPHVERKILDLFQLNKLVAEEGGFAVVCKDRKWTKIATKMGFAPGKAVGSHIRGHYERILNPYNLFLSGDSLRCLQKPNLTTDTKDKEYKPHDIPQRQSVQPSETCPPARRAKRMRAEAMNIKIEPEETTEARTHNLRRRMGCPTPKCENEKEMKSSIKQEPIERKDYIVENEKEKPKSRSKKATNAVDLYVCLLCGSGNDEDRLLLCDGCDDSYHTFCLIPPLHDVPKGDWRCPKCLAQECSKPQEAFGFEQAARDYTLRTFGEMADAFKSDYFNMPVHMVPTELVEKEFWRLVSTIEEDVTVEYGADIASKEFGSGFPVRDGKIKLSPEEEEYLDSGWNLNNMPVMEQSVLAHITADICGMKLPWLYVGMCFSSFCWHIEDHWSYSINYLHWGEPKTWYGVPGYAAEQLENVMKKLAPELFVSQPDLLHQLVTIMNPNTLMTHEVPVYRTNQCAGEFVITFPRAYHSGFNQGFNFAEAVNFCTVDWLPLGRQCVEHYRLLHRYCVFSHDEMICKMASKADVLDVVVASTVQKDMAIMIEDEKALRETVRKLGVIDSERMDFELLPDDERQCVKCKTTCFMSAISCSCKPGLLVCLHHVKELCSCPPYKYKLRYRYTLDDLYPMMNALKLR
Chain of FBXL10 (Q8NHM5 1-650): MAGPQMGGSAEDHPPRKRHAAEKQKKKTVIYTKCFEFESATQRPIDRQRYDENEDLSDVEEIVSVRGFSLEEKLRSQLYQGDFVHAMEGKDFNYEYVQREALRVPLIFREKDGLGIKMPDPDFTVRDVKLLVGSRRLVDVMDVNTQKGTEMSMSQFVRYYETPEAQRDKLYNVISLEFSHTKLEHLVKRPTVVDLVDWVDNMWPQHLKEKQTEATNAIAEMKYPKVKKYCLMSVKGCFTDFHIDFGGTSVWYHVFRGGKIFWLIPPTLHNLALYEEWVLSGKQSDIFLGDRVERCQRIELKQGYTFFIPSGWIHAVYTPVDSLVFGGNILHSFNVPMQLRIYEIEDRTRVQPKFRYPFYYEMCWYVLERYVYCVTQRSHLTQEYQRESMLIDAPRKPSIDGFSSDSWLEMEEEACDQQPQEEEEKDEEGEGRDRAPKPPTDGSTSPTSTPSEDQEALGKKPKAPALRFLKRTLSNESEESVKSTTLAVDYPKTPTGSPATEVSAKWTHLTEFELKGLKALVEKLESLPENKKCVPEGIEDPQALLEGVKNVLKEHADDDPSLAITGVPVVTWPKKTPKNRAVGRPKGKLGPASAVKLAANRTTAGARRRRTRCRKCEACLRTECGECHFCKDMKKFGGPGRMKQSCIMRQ

| Compound | IC50 (FBXL10) [µM] | IC50 (Jarid1A) [µM] | IC50 (Jarid1B) [µM] | IC50 (JMJD2C) [µM] |
| --- | --- | --- | --- | --- |
| Cn1cnc(-c2cc(C(=O)O)ccn2)c1Br [Example 2, 2-(5-bromo-1-methyl-1H-imidazol-4-yl)pyridine-4-carboxylic acid] | 0.1 to 1 | ≤ 0.1 | ≤ 0.1 | 0.1 to 1 |
| Cc1ccc(-c2c(-c3cc(C(=O)O)ccn3)ncn2C)cc1 [Example 4, 2-[1-methyl-5-(4-methylphenyl)-1H-imidazol-4-yl]pyridine-4-carboxylic acid] | 0.1 to 1 | ≤ 0.1 | ≤ 0.1 | 1 to 10 |
| CCc1ccc(-c2c(-c3cc(C(=O)O)ccn3)ncn2C)cc1 [Example 5, 2-[5-(4-ethylphenyl)-1-methyl-1H-imidazol-4-yl]pyridine-4-carboxylic acid] | 0.1 to 1 | ≤ 0.1 | ≤ 0.1 | 1 to 10 |
| Cn1cnc(-c2cc(C(=O)O)ccn2)c1-c1ccc(C(F)(F)F)cc1 [Example 6, 2-{1-methyl-5-[4-(trifluoromethyl)phenyl]-1H-imidazol-4-yl}pyridine-4-carboxylic acid] | 0.1 to 1 | ≤ 0.1 | ≤ 0.1 | 1 to 10 |
| Cn1cnc(-c2cc(C(=O)O)ccn2)c1-c1ccc(C(C)(C)C)cc1 [Example 9, 2-[5-(4-tert-butylphenyl)-1-methyl-1H-imidazol-4-yl]pyridine-4-carboxylic acid] |  | 0.1 to 1 | 0.1 to 1 | 1 to 10 |
| CNC(=O)c1cccc(-c2c(-c3cc(C(=O)O)ccn3)ncn2C)c1 [Example 10, 2-{1-methyl-5-[3-(methylcarbamoyl)phenyl]-1H-imidazol-4-yl}pyridine-4-carboxylic acid] |  | 0.1 to 1 | 0.1 to 1 | 1 to 10 |
| Cn1cnc(-c2cc(C(=O)O)ccn2)c1-c1cccc(CO)c1 [Example 11, 2-{5-[3-(hydroxymethyl)phenyl]-1-methyl-1H-imidazol-4-yl}pyridine-4-carboxylic acid] | 0.1 to 1 | 0.1 to 1 | 0.1 to 1 | 1 to 10 |
| Cn1cnc(-c2cc(C(=O)O)ccn2)c1-c1ccc(OC(F)(F)F)cc1 [Example 13, 2-{1-methyl-5-[4-(trifluoromethoxy)phenyl]-1H-imidazol-4-yl}pyridine-4-carboxylic acid] | 0.1 to 1 | 0.1 to 1 | 0.1 to 1 | 1 to 10 |
| CCOc1ccc(-c2c(-c3cc(C(=O)O)ccn3)ncn2C)cc1 [Example 14, 2-[5-(4-ethoxyphenyl)-1-methyl-1H-imidazol-4-yl]pyridine-4-carboxylic acid] | 0.1 to 1 | 0.1 to 1 | 0.1 to 1 | 1 to 10 |
| Cn1cnc(-c2cc(C(=O)O)ccn2)c1-c1ccc(C2(CO)CC2)cc1 [Example 17, 2-(5-{4-[1-(hydroxymethyl)cyclopropyl]phenyl}-1-methyl-1H-imidazol-4-yl)pyridine-4-carboxylic acid] |  | ≤ 0.1 | ≤ 0.1 | 0.1 to 1 |
| C#Cc1ccc(-c2c(-c3cc(C(=O)O)ccn3)ncn2C)cc1 [Example 21, 2-[5-(4-ethynylphenyl)-1-methyl-1H-imidazol-4-yl]pyridine-4-carboxylic acid] | ≤ 0.1 | ≤ 0.1 | ≤ 0.1 | 0.1 to 1 |
| Cn1cnc(-c2cc(C(=O)O)ccn2)c1-c1cccc(F)c1 [Example 24, 2-[5-(3-fluorophenyl)-1-methyl-1H-imidazol-4-yl]pyridine-4-carboxylic acid] | ≤ 0.1 | ≤ 0.1 | ≤ 0.1 | 0.1 to 1 |
| COCC1(c2ccc(-c3c(-c4cc(C(=O)O)ccn4)ncn3C)cc2)CC1 [Example 25, 2-(5-{4-[1-(methoxymethyl)cyclopropyl]phenyl}-1-methyl-1H-imidazol-4-yl)pyridine-4-carboxylic acid] |  | ≤ 0.1 | ≤ 0.1 | 1 to 10 |
| Cc1cc(Cl)ccc1-c1c(-c2cc(C(=O)O)ccn2)ncn1C [Example 26, 2-[5-(4-chloro-2-methylphenyl)-1-methyl-1H-imidazol-4-yl]pyridine-4-carboxylic acid] |  | ≤ 0.1 | 0.1 to 1 | 1 to 10 |
| Cn1cnc(-c2cc(C(=O)O)ccn2)c1-c1ccc(Cl)cc1C(F)(F)F [Example 27, 2-{5-[4-chloro-2-(trifluoromethyl)phenyl]-1-methyl-1H-imidazol-4-yl}pyridine-4-carboxylic acid] | ≤ 0.1 | ≤ 0.1 | ≤ 0.1 | 1 to 10 |
| Cn1cnc(-c2cc(C(=O)O)ccn2)c1-c1ccc(Cl)c(Cl)c1 [Example 28, 2-[5-(3,4-dichlorophenyl)-1-methyl-1H-imidazol-4-yl]pyridine-4-carboxylic acid] | 0.1 to 1 | ≤ 0.1 | ≤ 0.1 | 0.1 to 1 |

| Compound | IC50 (FBXL10) [µM] | IC50 (Jarid1A) [µM] | IC50 (Jarid1B) [µM] | IC50 (JMJD2C) [µM] |
| --- | --- | --- | --- | --- |
| COc1cc(-c2c(-c3cc(C(=O)O)ccn3)ncn2C)ccc1Cl [Example 30, 2-[5-(4-chloro-3-methoxyphenyl)-1-methyl-1H-imidazol-4-yl]pyridine-4-carboxylic acid] | ≤ 0.1 | ≤ 0.1 | ≤ 0.1 | 0.1 to 1 |
| Cn1cnc(-c2cc(C(=O)O)ccn2)c1-c1ccc(Cl)c(C(F)(F)F)c1 [Example 31, 2-{5-[4-chloro-3-(trifluoromethyl)phenyl]-1-methyl-1H-imidazol-4-yl}pyridine-4-carboxylic acid] | 0.1 to 1 | ≤ 0.1 | ≤ 0.1 | 0.1 to 1 |
| Cn1cnc(-c2cc(C(=O)O)ccn2)c1-c1ccc(C2(C(F)(F)F)CC2)cc1 [Example 34, 2-(1-methyl-5-{4-[1-(trifluoromethyl)cyclopropyl]phenyl}-1H-imidazol-4-yl)pyridine-4-carboxylic acid] |  | ≤ 0.1 | ≤ 0.1 | 0.1 to 1 |
| CN(C)CCCn1cnc(-c2cc(C(=O)O)ccn2)c1 [Example 42, 2-{1-[3-(dimethylamino)propyl]-1H-imidazol-4-yl}pyridine-4-carboxylic acid] |  | ≤ 0.1 | ≤ 0.1 | ≤ 0.1 |
| O=C(O)c1ccnc(-c2cn(CCN3CCOCC3)cn2)c1 [Example 45, 2-{1-[2-(morpholin-4-yl)ethyl]-1H-imidazol-4-yl}pyridine-4-carboxylic acid] |  | 1 to 10 | 0.1 to 1 | > 10 |
| CC(Cn1cnc(-c2cc(C(=O)O)ccn2)c1)N1CCCC1 (stereo not drawn) [Example 61, 2-{1-[2-(pyrrolidin-1-yl)propyl]-1H-imidazol-4-yl}pyridine-4-carboxylic acid] |  | ≤ 0.1 | ≤ 0.1 | ≤ 0.1 |
| O=C(O)c1ccnc(-c2cn(CCNCc3ccccc3C(F)(F)F)cn2)c1 [Example 75, 2-[1-[2-[[2-(trifluoromethyl)phenyl]methylamino]ethyl]imidazol-4-yl]pyridine-4-carboxylic acid] |  | ≤ 0.1 | ≤ 0.1 | ≤ 0.1 |
| COc1ccc(CCn2cnc(-c3cc(C(=O)O)ccn3)c2)cc1 [Example 94, 2-[1-[2-(4-methoxyphenyl)ethyl]imidazol-4-yl]pyridine-4-carboxylic acid] |  | ≤ 0.1 | ≤ 0.1 | ≤ 0.1 |
| Cn1cnc(-c2cc(-c3nn[nH]n3)ccn2)c1-c1ccc(F)c(O)c1 [Example 162, 2-fluoro-5-[3-methyl-5-[4-(2H-tetrazol-5-yl)pyridin-2-yl]imidazol-4-yl]phenol] | ≤ 0.1 |  |  | 1 to 10 |
| Cn1cnc(-c2cc(-c3nn[nH]n3)ccn2)c1-c1ccc(F)c(C(=O)Nc2ccccc2)c1 [Example 163, 2-fluoro-5-[3-methyl-5-[4-(2H-tetrazol-5-yl)pyridin-2-yl]imidazol-4-yl]-N-phenylbenzamide] | 0.1 to 1 |  |  | 1 to 10 |
| Cn1cnc(-c2cc(-c3nn[nH]n3)ccn2)c1-c1ccc(F)c2ccccc12 [Example 164, 2-[5-(4-fluoronaphthalen-1-yl)-1-methylimidazol-4-yl]-4-(2H-tetrazol-5-yl)pyridine] | ≤ 0.1 |  |  | 1 to 10 |
| Cn1nnc(-c2ccnc(-c3cn(Cc4ccccc4Cl)cn3)c2)n1 [Example 165, 2-(1-(2-chlorobenzyl)-1H-imidazol-4-yl)-4-(2-methyl-2H-tetrazol-5-yl)pyridine] | 1 to 10 |  |  | 1 to 10 |
| CC(C)(C)C(=O)OCn1nnc(-c2ccnc(-c3cn(Cc4ccccc4Cl)cn3)c2)n1 [Example 166, (5-(2-(1-(2-chlorobenzyl)-1H-imidazol-4-yl)pyridin-4-yl)-2H-tetrazol-2-yl)methyl pivalate] | 1 to 10 |  |  | 1 to 10 |
| CC(=O)OCn1nnc(-c2ccnc(-c3cn(Cc4ccccc4Cl)cn3)c2)n1 [Example 167, (5-(2-(1-(2-chlorobenzyl)-1H-imidazol-4-yl)pyridin-4-yl)-2H-tetrazol-2-yl)methyl acetate] | 0.1 to 1 |  |  | 1 to 10 |
| Fc1ccc(-c2c(-c3cc(-c4nn[nH]n4)ccn3)ncn2Cc2cccc(Cl)c2)c(OCC2CC2)c1 [Example 169, 2-(1-(3-chlorobenzyl)-5-(2-(cyclopropylmethoxy)-4-fluorophenyl)-1H-imidazol-4-yl)-4-(2H-tetrazol-5-yl)pyridine] | 0.1 to 1 |  |  | 1 to 10 |
